Source: patent US9550749B2, “Endoparasite control agent and method for using the same” (The University of Tokyo, priority 2012, dated 2017)

Experiments:
[1] = tested on: Haemonchus contortus L1-stage larvae; test: In vivo activity test on Haemonchus nematode (motor ability of L1-stage larvae in 96-well plate); conditions: 27° C./95% RH, 4 days
Method: In Vivo Activity Test on Haemonchus Nematode In a 96-well plate, twenty L1-stage larvae (Haemonchus contortus) per well were maintained so that they could freely move, and solutions of compounds of the present invention dissolved at predetermined concentrations in DMSO (the final concentration of DMSO was 0.78% (v/v)) were added at 0.5 Ill/well each. The plate was kept under the conditions of 27° C./95% RH for 4 days. The motor ability of the larvae was examined and the concentration required for 50% inhibition of the motor ability (EC50) was determined. Based on the EC50 value, the activity against the Haemonchus nematode was graded according to the criterion shown below. Grading Criterion A: The EC50 value is lower than 0.5 ppm. B: The EC50 value is 0.5 ppm or higher but lower than 5 ppm. C: The EC50 value is 5 ppm or higher.

[2] = target: T1, Ascaris suum succinate-ubiquinone reductase (mitochondrial complex II) (Ascaris suum, UniProt O44074+P92506+P92507); test: In vitro measurement of inhibitory activity on Ascaris suum succinate-ubiquinone reductase (mitochondrial complex II); type: biochemical; conditions: mitochondria from adult Ascaris suum muscle, UQ2 60 μM, succinate 10 mM, 25° C.
T1 construct: from tissue; host or cells: mitochondria from adult Ascaris suum muscle
T1 sequence (O44074 22-282): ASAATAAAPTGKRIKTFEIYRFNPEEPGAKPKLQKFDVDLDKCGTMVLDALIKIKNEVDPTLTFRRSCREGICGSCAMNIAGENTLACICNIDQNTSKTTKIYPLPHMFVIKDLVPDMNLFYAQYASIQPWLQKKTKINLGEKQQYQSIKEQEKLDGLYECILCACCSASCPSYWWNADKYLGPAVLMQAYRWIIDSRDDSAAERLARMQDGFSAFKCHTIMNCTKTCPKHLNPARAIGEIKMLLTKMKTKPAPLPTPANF
T1 sequence (P92506 32-188): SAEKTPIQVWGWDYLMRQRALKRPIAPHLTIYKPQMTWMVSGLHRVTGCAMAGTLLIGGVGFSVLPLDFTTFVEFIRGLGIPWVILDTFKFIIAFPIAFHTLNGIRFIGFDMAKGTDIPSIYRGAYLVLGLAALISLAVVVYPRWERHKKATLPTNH
T1 sequence (P92507 26-156): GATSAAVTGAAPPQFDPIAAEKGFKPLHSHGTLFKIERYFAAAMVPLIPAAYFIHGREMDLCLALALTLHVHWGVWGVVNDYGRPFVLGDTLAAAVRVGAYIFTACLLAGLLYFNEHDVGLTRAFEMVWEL
T1 sequence (Q33862 19-645 partner): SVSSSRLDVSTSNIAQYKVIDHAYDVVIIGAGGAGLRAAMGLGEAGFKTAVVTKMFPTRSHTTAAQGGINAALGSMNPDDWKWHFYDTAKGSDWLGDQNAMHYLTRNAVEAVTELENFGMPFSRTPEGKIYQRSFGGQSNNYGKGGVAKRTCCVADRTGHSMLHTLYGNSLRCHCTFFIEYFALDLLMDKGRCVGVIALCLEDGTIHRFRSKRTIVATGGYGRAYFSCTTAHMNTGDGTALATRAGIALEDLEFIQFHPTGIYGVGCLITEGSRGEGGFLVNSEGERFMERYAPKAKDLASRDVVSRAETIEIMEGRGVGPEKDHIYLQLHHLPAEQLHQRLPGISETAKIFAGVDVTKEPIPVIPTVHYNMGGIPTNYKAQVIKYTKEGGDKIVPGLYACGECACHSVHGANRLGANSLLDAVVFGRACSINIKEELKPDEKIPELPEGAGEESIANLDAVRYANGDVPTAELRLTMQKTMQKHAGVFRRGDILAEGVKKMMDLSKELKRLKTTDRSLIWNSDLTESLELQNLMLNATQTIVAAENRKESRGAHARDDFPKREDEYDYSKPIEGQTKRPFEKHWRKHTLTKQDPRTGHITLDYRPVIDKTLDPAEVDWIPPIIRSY
Method: In Vitro Measurement of Inhibitory Activity on Ascaris suum Succinate-Ubiquinone Reductase (Mitochondrial Complex II)
To a solution containing 50 mM potassium phosphate (pH 7.4) and 0.1% (w/v) sucrose monolaurate, an electron acceptor ubiquinone-2 (UQ2) was added at a final concentration of 60 μM, and the mixture was allowed to stand at 25° C. for 20 minutes. To this, potassium cyanide (final concentration: 2 mM) and mitochondria prepared from adult Ascaris suum muscle were added, and thorough mixing was done. To aliquots of the mixture, an inhibitor to be tested was added at various concentrations, and the mixtures were allowed to stand at 25° C. for 3 minutes. The enzymatic reaction was initiated by addition of potassium succinate (final concentration: 10 mM). The enzymatic activity was calculated based on the measurement of change in the absorbance at 278 nm of UQ2 (e=1.5×10^4 M^−1 cm^−1), and IC50 was determined from the plot of the inhibition percentage against the inhibitor concentration.

| SMILES | Grade (EC50, concentration required for 50% inhibition of the motor ability of larvae) [1] | IC50 [2] [nM] |
| --- | --- | --- |
| C[C@@H](Cn1nc(Cl)cc1C(F)(F)F)NC(=O)c1ccccc1C(F)(F)F [Compound 1] | A (The EC50 value is lower than 0.5 ppm.) | 5.2 |
| C[C@@H](Cn1nc(C(F)(F)F)cc1Cl)NC(=O)c1ccccc1C(F)(F)F [Compound 2] | A (The EC50 value is lower than 0.5 ppm.) |  |
| C[C@@H](Cn1nc(Cl)c(Br)c1Cl)NC(=O)c1ccccc1C(F)(F)F [Compound 3] | A (The EC50 value is lower than 0.5 ppm.) | 1.4 |
| C[C@@H](Cn1nc(C(F)(F)F)c(Cl)c1Cl)NC(=O)c1ccccc1C(F)(F)F [Compound 4] | A (The EC50 value is lower than 0.5 ppm.) | 1.9 |
| C[C@@H](Cn1nc(C(F)(F)F)cc1Br)NC(=O)c1ccccc1C(F)(F)F [Compound 5] | A (The EC50 value is lower than 0.5 ppm.) | 5.8 |
| Cc1ccccc1C(=O)N[C@@H](C)Cn1nc(Cl)c(Br)c1C(F)(F)F [Compound 6] |  | 2 |
| C[C@@H](Cn1nc(Cl)c(Br)c1C(F)(F)F)NC(=O)c1ccccc1C(F)(F)F [Compound 7] | A (The EC50 value is lower than 0.5 ppm.) | 1.7 |
| Cc1ccccc1C(=O)N[C@@H](C)Cn1nc(Cl)cc1C(F)(F)F [Compound 10] | B (The EC50 value is 0.5 ppm or higher but lower than 5 ppm.) |  |
| C[C@@H](Cn1nc(Br)c(Br)c1Br)NC(=O)c1ccccc1C(F)(F)F [Compound 14] |  | 1.8 |
| CSc1cc(C(F)(F)F)n(C[C@H](C)NC(=O)c2ccccc2C(F)(F)F)n1 [Compound 18] |  | 3.1 |
| C[C@@H](COc1ncc(C(F)(F)F)cc1Cl)NC(=O)c1ccccc1C(F)(F)F [Compound 23] | A (The EC50 value is lower than 0.5 ppm.) | 1.8 |
| O=C(NCCNc1ncc(C(F)(F)F)cc1Cl)c1ccccc1C(F)(F)F [Compound 24] | A (The EC50 value is lower than 0.5 ppm.) | 11 |
| O=C(NCCc1ccc(Oc2ncc(C(F)(F)F)cc2Cl)cc1Cl)c1ccccc1C(F)(F)F [Compound 26] | A (The EC50 value is lower than 0.5 ppm.) | 1.4 |
| C[S+]([O-])c1ccc(CCNC(=O)c2ccccc2C(F)(F)F)c(Cl)c1 (centres unmarked) [Compound 27] | B (The EC50 value is 0.5 ppm or higher but lower than 5 ppm.) | 260 |
| CSc1ccccc1C(=O)NCCc1ccc(Cl)cc1Cl [Compound 28] | A (The EC50 value is lower than 0.5 ppm.) | 1.2 |
| O=C(NCCc1ccc(Cl)cc1Cl)c1ccccc1SC(F)F [Compound 31] |  | 8.2 |
| O=C(NCCc1ccc(Cl)cc1Cl)c1ccccc1OC(F)(F)F [Compound 32] | A (The EC50 value is lower than 0.5 ppm.) | 48 |
| O=C(NCCc1ncc(C(F)(F)F)cc1Cl)c1ccccc1Cl [Compound 34] |  | 2.1 |
| O=C(NCCc1ncc(C(F)(F)F)cc1Cl)c1ccccc1Br [Compound 35] |  | 2.3 |
| O=C(NCCc1ncc(C(F)(F)F)cc1Cl)c1ccccc1I [Compound 36] | A (The EC50 value is lower than 0.5 ppm.) | 1.2 |
| Cc1ccccc1C(=O)NCCc1ncc(C(F)(F)F)cc1Cl [Compound 37] |  | 2.6 |
| O=C(NCCc1ncc(C(F)(F)F)cc1Cl)c1c(F)cccc1F [Compound 39] |  | 5.3 |
| O=C(NCCc1ncc(C(F)(F)F)cc1Cl)c1c(Cl)cccc1Cl [Compound 40] |  | 39 |
